Legend:
Mus musculus [1] = assay: In vivo antitumor activity was measured as the maximum dose tolerated by murine when administered intravenously; format: functional
DNA topoisomerase II = DNA topoisomerase II (Homo sapiens, UniProt P11388+Q02880); assay: Compound was tested for topoisomerase II inhibition in purified HeLa cells by SDS/K+ precipitation method; format: cell-based
P388 = assay: In vitro cytotoxicity was evaluated following 1 hour transient exposure of P388 mouse leukemia cells to the compound; format: functional, cell-based; settings: P388, 1 h
Mus musculus [2] = species on record: Mus musculus; assay: Tested for tumor growth inhibition in mice; format: functional
Mus musculus [3] = assay: In vivo antitumor activity was measured as the maximum dose tolerated by murine when administered subcutaneously; format: functional

Row | Structure (SMILES) | MTD (Mus musculus [1]) | EC50 (DNA topoisomerase II) | IC50 (P388) | T/C (Mus musculus [2]) | MTD (Mus musculus [3])
1 | Cc1cc(-c2c(F)cc3c4nn(CCCN(C)C)c(=O)c-4cn(C4CC4)c3c2F)cc(C)n1 | 64 mg/kg | 1700 nM | 160 nM | 35% | –
2 | COc1cc(NS(C)(=O)=O)ccc1Nc1c2ccccc2nc2ccccc12 [AMSACRINE] | 48 mg/kg | – | 150 nM | 0% | –
3 | Cc1cc(-c2c(F)cc3c4nn(-c5ccccc5)c(=O)c-4cn(C4CC4)c3c2F)cc(C)n1 | – | – | 1800 nM | >100% | 635 mg/kg
4 | Cc1cc(-c2c(F)cc3c4nn(CCN(C)C)c(=O)c-4cn(C4CC4)c3c2F)cc(C)n1 | 34 mg/kg | 2600 nM | 260 nM | 8% | –
5 | Cc1cc(-c2c(F)cc3c(=O)c(C(=O)O)cn(C4CC4)c3c2F)cc(C)n1 [WIN-57294] | – | – | – | 31% | 600 mg/kg
6 | Cc1cc(-c2c(F)cc3c(=O)ccn(C4CC4)c3c2F)cc(C)n1 | – | – | 15000 nM | >100% | 1950 mg/kg
7 | Cc1cc(-c2c(F)cc3c4nn([C@H]5CC[C@@H](N(C)C)CC5)c(=O)c-4cn(C4CC4)c3c2F)cc(C)n1 | 63 mg/kg | 1700 nM | 67 nM | 5% | –
8 | Cc1cc(-c2c(F)cc3c4nn(CC(=O)O)c(=O)c-4cn(C4CC4)c3c2F)cc(C)n1 | – | 10000 nM | > 200000 nM | – | –
9 | Cc1cc(-c2c(F)cc3c4nn([C@H]5CC[C@H](N)CC5)c(=O)c-4cn(C4CC4)c3c2F)cc(C)n1 | 550 mg/kg | 4200 nM | 1500 nM | 42% | –
10 | Cc1cc(-c2c(F)cc3c4nn(CCO)c(=O)c-4cn(C4CC4)c3c2F)cc(C)n1 | – | 6400 nM | 2000 nM | – | –
11 | Cc1cc(-c2c(F)cc3c4nn(C)c(=O)c-4cn(C4CC4)c3c2F)cc(C)n1 | – | 5900 nM | 3100 nM | – | –
12 | CCOC(=O)Cn1nc2c3cc(F)c(-c4cc(C)nc(C)c4)c(F)c3n(C3CC3)cc-2c1=O | – | 6100 nM | 5100 nM | – | –
13 | CC(=O)N[C@H]1CC[C@@H](n2nc3c4cc(F)c(-c5cc(C)nc(C)c5)c(F)c4n(C4CC4)cc-3c2=O)CC1 | – | 7400 nM | 1300 nM | – | –
14 | Cc1cc(-c2c(F)cc3c4nn(CCNCCO)c(=O)c-4cn(C4CC4)c3c2F)cc(C)n1 | 1410 mg/kg | 3300 nM | 1300 nM | 42% | –
15 | Cc1cc(-c2c(F)cc3c4nn(C5CCOCC5)c(=O)c-4cn(C4CC4)c3c2F)cc(C)n1 | – | 1700 nM | 290 nM | – | –
16 | Cc1cc(-c2c(F)cc3c4nn([C@H]5CC[C@@H](N)CC5)c(=O)c-4cn(C4CC4)c3c2F)cc(C)n1 | 110 mg/kg | 500 nM | 440 nM | 21% | –
17 | Cc1cc(-c2c(F)cc3c4nn(C5CCCCC5)c(=O)c-4cn(C4CC4)c3c2F)cc(C)n1 | 140 mg/kg | 900 nM | 680 nM | 18% | –
18 | Cc1cc(-c2c(F)cc3c4nn([C@H]5CC[C@H](N(C)C)CC5)c(=O)c-4cn(C4CC4)c3c2F)cc(C)n1 | 390 mg/kg | 4400 nM | 260 nM | 2% | –
19 | Cc1cc(-c2c(F)cc3c4n[nH]c(=O)c-4cn(C4CC4)c3c2F)cc(C)n1 | – | 11000 nM | 7900 nM | >100% | 2500 mg/kg
20 | Cc1cc(-c2c(F)cc3c4nn(C5CCC(C)CC5)c(=O)c-4cn(C4CC4)c3c2F)cc(C)n1 (centres undefined) | – | 3100 nM | 1400 nM | – | –
21 | COc1cc([C@@H]2c3cc4c(cc3[C@@H](O[C@@H]3O[C@@H]5CO[C@@H](C)O[C@H]5[C@H](O)[C@H]3O)[C@H]3COC(=O)[C@H]23)OCO4)cc(OC)c1O [ETOPOSIDE] | 96 mg/kg | – | – | 3% | –
22 | Cc1cc(-c2c(F)cc3c4nn(C5CCN(C)CC5)c(=O)c-4cn(C4CC4)c3c2F)cc(C)n1 | 128 mg/kg | 3200 nM | 94 nM | 24% | –
23 | CC(=O)N[C@H]1CC[C@H](n2nc3c4cc(F)c(-c5cc(C)nc(C)c5)c(F)c4n(C4CC4)cc-3c2=O)CC1 | – | 9800 nM | 1200 nM | – | –
